Legend:
[1] = tested on: P. aeruginosa strain CFS-1292; test: Checkerboard assay (FICI) with antibiotics, P. aeruginosa; format: cell-based, Pseudomonas aeruginosa; conditions: for Antibiotic FIC: P. aeruginosa CFS-1292; for Antibiotic MIC in checkerboard: P. aeruginosa CFS-1292, CAA + […] human serum
Protocol: Any known method to assess MIC may be used.
Checkerboards are constructed by first preparing columns of e.g., a 96-well polypropylene microtiter plate, wherein each well has the same amount of antibiotic diluted 2-fold along the horizontal axis. […] Bacteria are added to the drug combinations at concentrations of 1×10^5 […] in CAA, for example, with or without human serum or pulmonary surfactant. […] Summation fractional inhibitory concentrations (ΣFICs) are calculated for each drug and the minimum ΣFIC value (ΣFICmin) is used to determine the effect of the Chp peptide/antibiotic combination.
(§1) Checkerboard assays. […] Checkerboards were constructed by first preparing columns of a 96-well polypropylene microtiter plate, in which each well had the same amount of antibiotic diluted 2-fold along the horizontal axis. […] Summation fractional inhibitory concentration index (FICIs) were calculated for each drug and the minimum FICI was used to determine synergy. FICIs were calculated as follows: FICI=FIC A+FIC B, where FIC A is the MIC of each antibiotic in the combination/MIC of the each antibiotic alone, and FIC B is the MIC of each Chp peptide in the combination/MIC of each Chp peptide alone. The combination is considered synergistic when the FICI is ≤0.5, strongly additive when the FICI is >0.5 to <1, additive with the FICI is 1-<2, and antagonistic when the FICI is ≥2.
In the checkerboard assay, fractional inhibitory concentration index (FICI) values are calculated.

[2] = tested on: Acinetobacter baumannii strain 30; test: Checkerboard assay (FICI) with antibiotics, A. baumannii; format: cell-based; conditions: checkerboard
Protocol: as §1
The results are shown below in Tables 22-27.

[3] = tested on: M. smegmatis; test: 45 hr MIC against M. smegmatis (NTM), Mueller Hinton broth; format: cell-based, Mycobacterium smegmatis; conditions: M. smegmatis MC^2 155, Run #1
[4] = tested on: carbapenem-resistant P. aeruginosa clinical isolate CFS-1292; test: MIC by modified CLSI broth microdilution against P. aeruginosa CFS-1292 (CAA, CAA + human serum); format: cell-based, Pseudomonas aeruginosa; conditions: for MIC (μg/mL) against CFS-1292 in 100% CAA (1st run/2nd run): 1st run or single value
[5] = tested on: Klebsiella pneumoniae strain 1139; test: Checkerboard assay (FICI) with antibiotics, K. pneumoniae; format: cell-based
Protocol: as §1

[6] = tested on: LPS; test: Endotoxin neutralization, limulus amoebocyte lysate (LAL) enzyme assay, LPS binding; format: biochemical; conditions: LPS 0.8 EU/mL
Protocol: CHEM. […] The standard reference samples contained only LPS dissolved in pyrogen-free water. Solutions were mixed well and incubated at 24° C. for 1 hour, and the manufacturers' test procedure for quantitative detection of endotoxins was followed.

[7] = checkerboard, in combination with Chp4-M1
[8] = checkerboard, in combination with Chp6-M1
[9] = checkerboard, in combination with Chp10-M1
[10] = checkerboard, in combination with Unp2-M1

Molecule	Antibiotic FIC ([1]; combined with Chp2-M1)	Antibiotic FIC ([1]; combined with Chp2)	Antibiotic FIC ([1]; combined with Chp4-M1)	Antibiotic FIC ([1]; combined with Chp6-M1)	Antibiotic FIC ([1]; combined with Chp10-M1)	Antibiotic FIC ([1]; combined with Unp2-M1)	Antibiotic FIC ([2]; in combination with Chp2)	Antibiotic FIC ([2]; in combination with Chp2-M1)	Antibiotic FIC ([2]; in combination with Chp4-M1)	Antibiotic FIC ([2]; in combination with Chp6-M1)	Antibiotic FIC ([2]; in combination with Chp10-M1)	Antibiotic FIC ([2]; in combination with Unp2-M1)	Antibiotic FIC [5, 7]	Antibiotic MIC [5, 7] [µg/mL]	Antibiotic MIC [5, 8] [µg/mL]	Antibiotic MIC [5, 9] [µg/mL]	Antibiotic MIC [5, 10] [µg/mL]	Antibiotic MIC ([2]; in combination with Chp2) [µg/mL]	Antibiotic MIC ([2]; in combination with Chp4-M1) [µg/mL]	Antibiotic MIC ([2]; in combination with Chp10-M1) [µg/mL]	other results
NCC[C@H](O)C(=O)N[C@@H]1C[C@H](N)[C@@H](O[C@H]2O[C@H](CN)[C@@H](O)[C@H](O)[C@H]2O)[C@H](O)[C@H]1O[C@H]1O[C@H](CO)[C@@H](O)[C@H](N)[C@H]1O [Amikacin]	0.25	0.25	0.0625	0.25	0.125	0.25	0.25	0.5	0.5	0.5	0.5	0.5									Antibiotic MIC in checkerboard ([1]; combined with Chp2-M1): 0.5 µg/mL; Antibiotic MIC in checkerboard ([1]; combined with Chp2): 0.5 µg/mL; Antibiotic MIC in checkerboard ([1]; combined with Chp6-M1): 0.5 µg/mL; Antibiotic MIC in checkerboard ([1]; combined with Chp10-M1): 0.25 µg/mL; Antibiotic MIC in checkerboard ([1]; combined with Unp2-M1): 0.5 µg/mL
MRKKMHKSLDKRVFNRTAKKSKKINVNPVVYRGGIRL [CDL907]																					45 hr MIC [3]: >128 µg/mL; MIC (μg/mL) against CFS-1292 in 100% CAA (1st run/2nd run) [4]: 8 µg/mL; MIC (μg/mL) against CFS-1292 in CAA + […] human serum [4]: 0.5 µg/mL
CC[C@H]1OC(=O)[C@H](C)[C@@H](O[C@H]2C[C@@](C)(OC)[C@@H](O)[C@H](C)O2)[C@H](C)[C@@H](O[C@@H]2O[C@H](C)C[C@H](N(C)C)[C@H]2O)[C@](C)(O)C[C@@H](C)CN(C)[C@H](C)[C@@H](O)[C@]1(C)O [Azithromycin]		0.25	0.25	0.25			0.5	0.25	0.25	0.25	0.5	0.5	0.25	1	1	1	1	0.5	0.5	0.5	Antibiotic FIC [5, 8]: 0.5; Antibiotic MIC in checkerboard ([5]; combined with Chp2): 1 µg/mL; Antibiotic FIC ([5]; combined with Chp2-M1): 0.25; Antibiotic MIC in checkerboard ([5]; combined with Chp2-M1): 1 µg/mL; Antibiotic MIC ([2]; in combination with Chp2-M1): 0.5 µg/mL; Antibiotic MIC ([2]; in combination with Chp6-M1): 0.5 µg/mL; Antibiotic MIC ([2]; in combination with Unp2-M1): 0.5 µg/mL
C[C@H]1[C@H](NC(=O)/C(=N\OC(C)(C)C(=O)O)c2csc(N)n2)C(=O)N1S(=O)(=O)O [Aztreonam]	0.5	0.25	0.25	0.25	0.25		0.25	0.25	0.25	0.25	0.25	0.25	0.5	0.007812	0.007812	0.007812	0.007812	8	16	8	Antibiotic FIC [5, 8]: 0.25; Antibiotic FIC [5, 9]: 0.25; Antibiotic FIC [5, 10]: 0.007812; Antibiotic FIC ([5]; combined with Chp2): 0.5; Antibiotic MIC in checkerboard ([5]; combined with Chp2): 0.007812 µg/mL; Antibiotic FIC ([5]; combined with Chp2-M1): 0.5; Antibiotic MIC in checkerboard ([5]; combined with Chp2-M1): 0.007812 µg/mL; Antibiotic MIC ([2]; in combination with Chp2-M1): 8 µg/mL; Antibiotic MIC ([2]; in combination with Chp6-M1): 8 µg/mL; Antibiotic MIC ([2]; in combination with Unp2-M1): 16 µg/mL
C[C@H]1COc2c(N3CCN(C)CC3)c(F)cc3c(=O)c(C(=O)O)cn1c23 [Levofloxacin]	0.25	0.25	0.5	0.25	0.25	0.25	0.25	0.25	0.25	0.25	0.25	0.25	0.25	0.007812	0.007812	0.007812	0.01562				Antibiotic FIC [5, 8]: 0.25; Antibiotic FIC [5, 9]: 0.125; Antibiotic FIC [5, 10]: 0.01562; Antibiotic FIC ([5]; combined with Chp2): 0.25; Antibiotic MIC in checkerboard ([5]; combined with Chp2): 0.007812 µg/mL; Antibiotic FIC ([5]; combined with Chp2-M1): 0.25; Antibiotic MIC in checkerboard ([5]; combined with Chp2-M1): 0.007812 µg/mL
Gentamicin		0.5				0.25	0.25	0.5	0.5	0.5	0.01562	0.5						0.03125	0.03125	0.0009766	Antibiotic MIC ([2]; in combination with Chp2-M1): 0.03125 µg/mL; Antibiotic MIC ([2]; in combination with Chp6-M1): 0.03125 µg/mL; Antibiotic MIC ([2]; in combination with Unp2-M1): 0.03125 µg/mL
CCN1CCN(C(=O)N[C@@H](C(=O)N[C@@H]2C(=O)N3[C@@H]2SC(C)(C)[C@@H]3C(=O)O)c2ccccc2)C(=O)C1=O [Piperacillin]	0.125	0.5	0.5	0.25	0.25	0.25	0.25	0.25	0.25	0.5	0.25	0.25						8	8	4	Antibiotic MIC in checkerboard ([1]; combined with Chp2-M1): 1 µg/mL; Antibiotic MIC in checkerboard ([1]; combined with Chp2): 4 µg/mL; Antibiotic MIC in checkerboard ([1]; combined with Chp4-M1): 8 µg/mL; Antibiotic MIC in checkerboard ([1]; combined with Chp6-M1): 2 µg/mL; Antibiotic MIC in checkerboard ([1]; combined with Chp10-M1): 2 µg/mL; Antibiotic MIC in checkerboard ([1]; combined with Unp2-M1): 2 µg/mL; Antibiotic MIC ([2]; in combination with Chp2-M1): 8 µg/mL; Antibiotic MIC ([2]; in combination with Chp6-M1): 16 µg/mL; Antibiotic MIC ([2]; in combination with Unp2-M1): 8 µg/mL
MKKRTKALLPYAVFIILSFQLTLLTALFMYYHYTF [Lvp2]																					MIC (μg/mL) against CFS-1292 in 100% CAA (1st run/2nd run) [4]: 32 µg/mL; MIC (μg/mL) against CFS-1292 in CAA + […] human serum [4]: 8 µg/mL
colistin [reference compound]	0.25	0.25	0.25	0.25		0.25		0.5	0.5	0.25	0.25	0.5	0.25	0.03125	0.01562	0.03125	0.03125	0.0009766	0.003906	0.0009766	Antibiotic MIC in checkerboard ([1]; combined with Chp2-M1): 0.01562 µg/mL; Antibiotic MIC in checkerboard ([1]; combined with Chp2): 0.01562 µg/mL; Antibiotic MIC in checkerboard ([1]; combined with Chp4-M1): 0.03125 µg/mL; Antibiotic MIC in checkerboard ([1]; combined with Chp6-M1): 0.01562 µg/mL; Antibiotic MIC in checkerboard ([1]; combined with Chp10-M1): 0.007806 µg/mL; Antibiotic MIC in checkerboard ([1]; combined with Unp2-M1): 0.01562 µg/mL; Antibiotic FIC [5, 9]: 0.25; Antibiotic MIC in checkerboard ([5]; combined with Chp2): 0.007812 µg/mL; Antibiotic MIC in checkerboard ([5]; combined with Chp2-M1): 0.01562 µg/mL; LPS binding ([6]; […]-64 μg/mL, 24° C., 1 hour): dose-dependent increases in LPS binding; % LPS Bound ([6]; peptide concentration 0.5 μg/mL): 22.5%; % LPS Bound ([6]; peptide concentration 1 μg/mL): 51.9%; % LPS Bound ([6]; peptide concentration 2 μg/mL): 74.2%; % LPS Bound ([6]; peptide concentration 4 μg/mL): 88.2%; % LPS Bound ([6]; peptide concentration 8 μg/mL): 92.4%; % LPS Bound ([6]; peptide concentration 16 μg/mL): 92.8%; % LPS Bound ([6]; peptide concentration 32 μg/mL): 92.2%; % LPS Bound ([6]; peptide concentration 64 μg/mL): 93.4%

From patent publication US20220401514A1, “ANTIMICROBIAL, BACTERIOPHAGE-DERIVED POLYPEPTIDES AND THEIR USE AGAINST GRAM-NEGATIVE AND ACID-FAST BACTERIA” (CONTRAFECT CORPORATION, priority 2019, published 2022)
